Data from patent publication US20260125374A1, “PI3K-ALPHA INHIBITORS AND METHODS OF MAKING AND USING THE SAME” (Relay Therapeutics, Inc., priority 2021, published 2026).

Assay: Salt screening (XRPD, chiral purity of hits)
Assay type: physicochemical
Conditions: for Chiral purity of salt screening solid: slurry
Experimental: Based on the pKa of I-1 free form, 23 counter ions were selected as salt/cocrystal forming agents. Methanol, acetone and isopropyl acetate were used as screening solvents. 1.0 equivalent of selected counter ions/coformers was applied for salt screening. Slurry equilibration, slow evaporation and anti-solvent addition were used as crystallization methods. In total, about 70 screening experiments were conducted.
About 50 mg of I-1 Form A were added to a suitable amount of solvent and 1.0 equivalent of counter ions were added under stirring at 50° C. for 2 hours and then at 25° C. for at least 12 hours. MeOH, acetone and IPAc were used as screening solvents.
Obtained suspensions were taken out and centrifuged. Solids obtained were analyzed by XRPD and salt screening results were summarized in Table 5.1, Table 5.2, and Table 5.3.

[1] = 1.0 equiv. naphthalene-1,5-disulfonic acid, MeOH
[2] = 1.0 equiv. naphthalene-1,5-disulfonic acid, MeOH/water(9:1, v/v)
[3] = 1.0 equiv. naphthalene-1,5-disulfonic acid, MeOH, dried at 50° C. for 21 h
[4] = crystalline hits of salt screening, listed as I-1 Form A

## N#Cc1c(-c2cc(NC(=O)c3cc(F)cc(C(F)(F)F)c3)c3c(c2)C(=O)N[C@H]3c2cc(F)ccc2Cl)ccc2ncnn12 [Compound I-1, (R)-N-(3-(2-chloro-5-fluorophenyl)-6-(5-cyano-[1,2,4]triazolo[1,5-a]pyridin-6-yl)-1-oxoisoindolin-4-yl)-3-fluoro-5-(trifluoromethyl)benzamide]
1.0 equiv. L-tartaric acid, Isopropyl acetate
  Salt screening result (slurry crystallization): − (I-1 Form A) (Free form, counter ions, or physical mixtures)
1.0 equiv. L-tartaric acid, MeOH
  Salt screening result (slurry crystallization): − (I-1 Form A) (Free form, counter ions, or physical mixtures)
1.0 equiv. citric acid, Acetone
  Salt screening result (slurry crystallization): thin suspension
1.0 equiv. citric acid, Acetone/MTBE
  Salt screening result (anti-solvent): −(I-1 Form B) (Free form, counter ions, or physical mixtures)
1.0 equiv. citric acid, Isopropyl acetate
  Salt screening result (slurry crystallization): − (I-1 Form A) (Free form, counter ions, or physical mixtures)
1.0 equiv. citric acid, MeOH
  Salt screening result (slurry crystallization): − (I-1 Form A) (Free form, counter ions, or physical mixtures)
1.0 equiv. fumaric acid, Acetone
  Salt screening result (slurry crystallization): − (physical mixtures (Free form, counter ions, or physical mixtures)
1.0 equiv. fumaric acid, Isopropyl acetate
  Salt screening result (slurry crystallization): − (physical mixtures (Free form, counter ions, or physical mixtures)
1.0 equiv. fumaric acid, MeOH
  Salt screening result (slurry crystallization): − (I-1 Form A) (Free form, counter ions, or physical mixtures)
1.0 equiv. gentisic acid, Acetone
  Salt screening result (slurry crystallization): thin suspension
1.0 equiv. gentisic acid, Acetone/MTBE
  Salt screening result (anti-solvent): −(I-1 Form B) (Free form, counter ions, or physical mixtures)
1.0 equiv. gentisic acid, Isopropyl acetate
  Salt screening result (slurry crystallization): − (I-1 Form A) (Free form, counter ions, or physical mixtures)
1.0 equiv. gentisic acid, MeOH
  Salt screening result (slurry crystallization): − (I-1 Form A) (Free form, counter ions, or physical mixtures)
1.0 equiv. isonicotinamide, Acetone
  Salt screening result (slurry crystallization): thin suspension
1.0 equiv. isonicotinamide, Acetone/MTBE
  Salt screening result (anti-solvent): −(I-1 Form B) (Free form, counter ions, or physical mixtures)
1.0 equiv. isonicotinamide, Isopropyl acetate
  Salt screening result (slurry crystallization): − (physical mixtures (Free form, counter ions, or physical mixtures)
1.0 equiv. isonicotinamide, MeOH
  Salt screening result (slurry crystallization): − (I-1 Form A) (Free form, counter ions, or physical mixtures)
1.0 equiv. maleic acid, Acetone
  Salt screening result (slurry crystallization): thin suspension
1.0 equiv. maleic acid, Acetone/MTBE
  Salt screening result (anti-solvent): −(I-1 Form B) (Free form, counter ions, or physical mixtures)
1.0 equiv. maleic acid, Isopropyl acetate
  Salt screening result (slurry crystallization): − (I-1 Form A) (Free form, counter ions, or physical mixtures)
1.0 equiv. maleic acid, MeOH
  Salt screening result (slurry crystallization): − (I-1 Form A) (Free form, counter ions, or physical mixtures)
1.0 equiv. malonic acid, Acetone
  Salt screening result (slurry crystallization): thin suspension
1.0 equiv. malonic acid, Acetone/MTBE
  Salt screening result (anti-solvent): −(I-1 Form B) (Free form, counter ions, or physical mixtures)
1.0 equiv. malonic acid, Isopropyl acetate
  Salt screening result (slurry crystallization): − (I-1 Form A) (Free form, counter ions, or physical mixtures)
1.0 equiv. malonic acid, MeOH
  Salt screening result (slurry crystallization): − (I-1 Form A) (Free form, counter ions, or physical mixtures)
1.0 equiv. methanesulfonic acid, Acetone
  Salt screening result (slurry crystallization): thin suspension
1.0 equiv. methanesulfonic acid, IPAc/MTBE
  Salt screening result (anti-solvent): thin suspension
1.0 equiv. methanesulfonic acid, Isopropyl acetate
  Salt screening result (slurry crystallization): thin suspension
1.0 equiv. naphthalene-1,5-disulfonic acid, Acetone
  Salt screening result (slurry crystallization): thin suspension
1.0 equiv. naphthalene-1,5-disulfonic acid, Isopropyl acetate, 3 days
  Salt screening result (slurry crystallization): 3 days: AF;
1.0 equiv. naphthalene-1,5-disulfonic acid, Isopropyl acetate, for another 3 days
  Salt screening result (slurry crystallization): 3 days: AF
[1]
  Salt screening result (slurry crystallization): + (I-1 Form A ) (Salt hits)
  Chiral purity of salt screening solid: Chiral purity: 100%
[2]
  Salt screening result (slurry crystallization): − (physical mixtures of (Free form, counter ions, or physical mixtures)
  Chiral purity of salt screening solid: Chiral purity: 99.3%
[3]
  Crystallinity of salt screening solid: low crystallinity
  Chiral purity of salt screening solid: Chiral purity: 100%
1.0 equiv. naphthalene-2-sulfonic acid, Isopropyl acetate
  Salt screening result (slurry crystallization): thin suspension
1.0 equiv. nicotinamide, Acetone
  Salt screening result (slurry crystallization): thin suspension
1.0 equiv. nicotinamide, Acetone/MTBE
  Salt screening result (anti-solvent): −(I-1 Form B) (Free form, counter ions, or physical mixtures)
1.0 equiv. nicotinamide, Isopropyl acetate
  Salt screening result (slurry crystallization): − (physical mixtures (Free form, counter ions, or physical mixtures)
1.0 equiv. nicotinamide, MeOH
  Salt screening result (slurry crystallization): − (I-1 Form A (Free form, counter ions, or physical mixtures)
1.0 equiv. nicotinic acid, Acetone
  Salt screening result (slurry crystallization): − (physical mixtures (Free form, counter ions, or physical mixtures)
1.0 equiv. nicotinic acid, Isopropyl acetate
  Salt screening result (slurry crystallization): − (physical mixtures (Free form, counter ions, or physical mixtures)
1.0 equiv. nicotinic acid, MeOH
  Salt screening result (slurry crystallization): − (physical mixtures (Free form, counter ions, or physical mixtures)
1.0 equiv. phosphoric acid, Acetone
  Salt screening result (slurry crystallization): thin suspension
1.0 equiv. phosphoric acid, Acetone/MTBE
  Salt screening result (anti-solvent): −(I-1 Form B) (Free form, counter ions, or physical mixtures)
1.0 equiv. phosphoric acid, Isopropyl acetate
  Salt screening result (slurry crystallization): − (I-1 Form A) (Free form, counter ions, or physical mixtures)
1.0 equiv. phosphoric acid, MeOH
  Salt screening result (slurry crystallization): − (I-1 Form A) (Free form, counter ions, or physical mixtures)
1.0 equiv. sodium hydroxide, Acetone
  Salt screening result (slurry crystallization): thin suspension
1.0 equiv. sodium hydroxide, Isopropyl acetate, for another 3 days
  Salt screening result (slurry crystallization): another 3 days: AF
1.0 equiv. sodium hydroxide, MeOH
  Salt screening result (slurry crystallization): clear solution
1.0 equiv. sulfuric acid, Acetone
  Salt screening result (slurry crystallization): thin suspension
1.0 equiv. sulfuric acid, Acetone/MTBE
  Salt screening result (anti-solvent): thin suspension
1.0 equiv. sulfuric acid, Isopropyl acetate
  Salt screening result (slurry crystallization): thin suspension
1.0 equiv. sulfuric acid, MeOH
  Salt screening result (slurry crystallization): − (I-1 Form A) (Free form, counter ions, or physical mixtures)
1.0 equiv. theobromine, Acetone
  Salt screening result (slurry crystallization): − (physical mixtures (Free form, counter ions, or physical mixtures)
1.0 equiv. theobromine, Isopropyl acetate
  Salt screening result (slurry crystallization): − (physical mixtures (Free form, counter ions, or physical mixtures)
1.0 equiv. theobromine, MeOH
  Salt screening result (slurry crystallization): − (physical mixtures (Free form, counter ions, or physical mixtures)
1.0 equiv. theophylline, Acetone
  Salt screening result (slurry crystallization): − (physical mixtures (Free form, counter ions, or physical mixtures)
1.0 equiv. theophylline, Isopropyl acetate
  Salt screening result (slurry crystallization): − (physical mixtures (Free form, counter ions, or physical mixtures)
1.0 equiv. theophylline, MeOH
  Salt screening result (slurry crystallization): − (physical mixtures (Free form, counter ions, or physical mixtures)
Free form, Acetone
  Salt screening result (slurry crystallization): − (I-1 Form A) (Free form, counter ions, or physical mixtures)
Free form, Isopropyl acetate
  Salt screening result (slurry crystallization): − (I-1 Form A) (Free form, counter ions, or physical mixtures)
Free form, MeOH
  Salt screening result (slurry crystallization): − (I-1 Form A) (Free form, counter ions, or physical mixtures)
[4]
  Chiral purity (by HPLC): 99.2%
  Crystallinity (By XRPD): High
